In patent US20230085307A1, “PYRIDAZINONE COMPOUND AND HERBICIDE” (NISSAN CHEMICAL CORPORATION, priority 2019, published 2023):

Assays:
barnyard grass [1] = experiment: Test Example 5: herbicidal effect by foliage application, plastic box (Table 20, symbol H); type: in vivo, barnyard grass (Echinochloa crus-galli); details: foliage application, 320 g/ha, evaluated three weeks after application
Outline: (§1)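 Plants were sown into sterilized diluvial soil under about 1.5 cm cover and kept in a greenhouse at 25° C. to 30° C. Fourteen days on, foliage received an even spray of the diluted emulsion. Herbicidal or crop effect was judged three weeks afterwards.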

lambsquarters [2] = experiment: Test Example 4: herbicidal effect by soil treatment (Table 19, symbol O); type: in vivo, lambsquarters (Chenopodium album); details: amount of applied herbicide 320 g/ha
Outline: (§2)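 Pre-emergence style soil spray: seeds under ~1.5 cm sterilized diluvial soil received a uniform coat of emulsion diluted to the predetermined herbicide amount. Greenhouse 25–30° C; readout at week three on previously defined criteria.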

southern crabgrass [3] = experiment: Test Example 5: herbicidal effect by foliage application, plastic box (Table 20, symbol F); type: in vivo, southern crabgrass (Digitaria ciliaris); details: foliage application, 320 g/ha, evaluated three weeks after application
Outline: as §1

persian speedwell [4] = experiment: Test Example 5: herbicidal effect by foliage application, plastic box (Table 20, symbol R); type: in vivo, Persian speedwell (Veronica persica); details: foliage application, 320 g/ha, evaluated three weeks after application
Outline: as §1

Japanese bulrush = experiment: Test Example 1: herbicidal activity, application before weed generation under submerged conditions (Table 16, symbol B); type: in vivo, Japanese bulrush (Schoenoplectus juncoides); details: 320 g/ha applied herbicide
Outline: (§3)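 Submerged Wagner pots (alluvial soil, 4 cm water) sown with weed seeds and planted with 2.5-leaf rice seedlings; emulsifiable concentrate diluted in water applied to water surface on sowing day. Held in greenhouse at 25-30 °C; injury scored 0-5 by herbicidal rate after three weeks.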

velvetleaf [5] = experiment: Test Example 4: herbicidal effect by soil treatment (Table 19, symbol M); type: in vivo, velvetleaf (Abutilon theophrasti); details: amount of applied herbicide 320 g/ha
Outline: as §2

wild oat [6] = experiment: Test Example 4: herbicidal effect by soil treatment (Table 19, symbol I); type: in vivo, wild oat (Avena fatua); details: amount of applied herbicide 320 g/ha
Outline: as §2

redroot pigweed [7] = experiment: Test Example 4: herbicidal effect by soil treatment (Table 19, symbol N); type: in vivo, redroot pigweed (Amaranthus retroflexus); details: amount of applied herbicide 320 g/ha
Outline: as §2

green foxtail [8] = experiment: Test Example 5: herbicidal effect by foliage application, plastic box (Table 20, symbol G); type: in vivo, green foxtail (Setaria viridis); details: foliage application, 320 g/ha, evaluated three weeks after application
Outline: as §1

windgrass [9] = experiment: Test Example 4: herbicidal effect by soil treatment (Table 19, symbol L); type: in vivo, windgrass (Apera spica-venti); details: amount of applied herbicide 320 g/ha
Outline: as §2

windgrass [10] = experiment: Test Example 5: herbicidal effect by foliage application, plastic box (Table 20, symbol L); type: in vivo, windgrass (Apera spica-venti); details: foliage application, 320 g/ha, evaluated three weeks after application
Outline: as §1

redroot pigweed [11] = experiment: Test Example 5: herbicidal effect by foliage application, plastic box (Table 20, symbol N); type: in vivo, redroot pigweed (Amaranthus retroflexus); details: foliage application, 320 g/ha, evaluated three weeks after application
Outline: as §1

Italian ryegrass [12] = experiment: Test Example 5: herbicidal effect by foliage application, plastic box (Table 20, symbol K); type: in vivo, Italian ryegrass (Lolium multiflorum); details: foliage application, 320 g/ha, evaluated three weeks after application
Outline: as §1

blackgrass [13] = experiment: Test Example 4: herbicidal effect by soil treatment (Table 19, symbol J); type: in vivo, blackgrass (Alopecurus myosuroides); details: amount of applied herbicide 320 g/ha
Outline: as §2

oval-leafed pondweed = experiment: Test Example 1: herbicidal activity, application before weed generation under submerged conditions (Table 16, symbol C); type: in vivo, oval-leafed pondweed (Monochoria vaginalis); details: 320 g/ha applied herbicide
Outline: as §3

Chinese sprangletop = experiment: Test Example 3: herbicidal effect by foliage application, Wagner pot (Table 18, symbol D); type: in vivo, chinese sprangletop (Leptochloa chinensis); details: amount of applied herbicide 320 g/ha
Outline: (§4)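 Plants were sown in alluvial soil held under 0.1–0.5 cm standing water and grown 14 days in a greenhouse at 25–30 °C. An emulsifiable formulation, water-diluted to the set dose, was then sprayed onto the foliage, and effects were scored three weeks later using previously defined criteria.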

persian speedwell [14] = experiment: Test Example 4: herbicidal effect by soil treatment (Table 19, symbol R); type: in vivo, Persian speedwell (Veronica persica); details: amount of applied herbicide 320 g/ha
Outline: as §2

barnyard grass [15] = experiment: Test Example 4: herbicidal effect by soil treatment (Table 19, symbol H); type: in vivo, barnyard grass (Echinochloa crus-galli); details: amount of applied herbicide 320 g/ha
Outline: as §2

late watergrass = experiment: Test Example 1: herbicidal activity, application before weed generation under submerged conditions (Table 16, symbol A); type: in vivo, late watergrass (Echinochloa oryzicola); details: 320 g/ha applied herbicide
Outline: as §3

chickweed [16] = experiment: Test Example 4: herbicidal effect by soil treatment (Table 19, symbol P); type: in vivo, common chickweed (Stellaria media); details: amount of applied herbicide 320 g/ha
Outline: as §2

blackgrass [17] = experiment: Test Example 5: herbicidal effect by foliage application, plastic box (Table 20, symbol J); type: in vivo, blackgrass (Alopecurus myosuroides); details: foliage application, 320 g/ha, evaluated three weeks after application
Outline: as §1

green foxtail [18] = experiment: Test Example 4: herbicidal effect by soil treatment (Table 19, symbol G); type: in vivo, green foxtail (Setaria viridis); details: amount of applied herbicide 320 g/ha
Outline: as §2

velvetleaf [19] = experiment: Test Example 5: herbicidal effect by foliage application, plastic box (Table 20, symbol M); type: in vivo, velvetleaf (Abutilon theophrasti); details: foliage application, 320 g/ha, evaluated three weeks after application
Outline: as §1

Italian ryegrass [20] = experiment: Test Example 4: herbicidal effect by soil treatment (Table 19, symbol K); type: in vivo, Italian ryegrass (Lolium multiflorum); details: amount of applied herbicide 320 g/ha
Outline: as §2

chickweed [21] = experiment: Test Example 5: herbicidal effect by foliage application, plastic box (Table 20, symbol P); type: in vivo, common chickweed (Stellaria media); details: foliage application, 320 g/ha, evaluated three weeks after application
Outline: as §1

southern crabgrass [22] = experiment: Test Example 4: herbicidal effect by soil treatment (Table 19, symbol F); type: in vivo, southern crabgrass (Digitaria ciliaris); details: amount of applied herbicide 320 g/ha
Outline: as §2

lambsquarters [23] = experiment: Test Example 5: herbicidal effect by foliage application, plastic box (Table 20, symbol O); type: in vivo, lambsquarters (Chenopodium album); details: foliage application, 320 g/ha, evaluated three weeks after application
Outline: as §1

wild oat [24] = experiment: Test Example 5: herbicidal effect by foliage application, plastic box (Table 20, symbol I); type: in vivo, wild oat (Avena fatua); details: foliage application, 320 g/ha, evaluated three weeks after application
Outline: as §1

barnyard grass [25] = experiment: Test Example 3: herbicidal effect by foliage application, Wagner pot (Table 18, symbol H); type: in vivo, barnyard grass (Echinochloa crus-galli); details: amount of applied herbicide 320 g/ha
Outline: as §4

rice flat sedge = experiment: Test Example 3: herbicidal effect by foliage application, Wagner pot (Table 18, symbol E); type: in vivo, rice flat sedge (Cyperus iria); details: amount of applied herbicide 320 g/ha
Outline: as §4

| SMILES | herbicidal effect on H: barnyard grass (criteria 0-5) (barnyard grass [1]) | herbicidal effect on F: southern crabgrass (criteria 0-5) (southern crabgrass [3]) | herbicidal effect on R: persian speedwell (criteria 0-5) (persian speedwell [4]) | Herbicidal effect on B: Japanese bulrush (grade 0-5) (Japanese bulrush) | herbicidal effect on G: green foxtail (criteria 0-5) (green foxtail [8]) | herbicidal effect on L: windgrass (criteria 0-5) (windgrass [10]) | herbicidal effect on N: redroot pigweed (criteria 0-5) (redroot pigweed [11]) | herbicidal effect on K: Italian ryegrass (criteria 0-5) (Italian ryegrass [12]) | Herbicidal effect on C: oval-leafed pondweed (grade 0-5) (oval-leafed pondweed) | herbicidal effect on D: Chinese sprangletop (Chinese sprangletop) | Herbicidal effect on A: late watergrass (grade 0-5) (late watergrass) | herbicidal effect on J: blackgrass (criteria 0-5) (blackgrass [17]) | herbicidal effect on M: velvetleaf (criteria 0-5) (velvetleaf [19]) | herbicidal effect on P: chickweed (criteria 0-5) (chickweed [21]) | herbicidal effect on O: lambsquarters (criteria 0-5) (lambsquarters [23]) | herbicidal effect on I: wild oat (criteria 0-5) (wild oat [24]) | herbicidal effect on H: barnyard grass (barnyard grass [25]) | herbicidal effect on E: rice flat sedge (rice flat sedge) | further results |
| --- | --- | --- | --- | --- | --- | --- | --- | --- | --- | --- | --- | --- | --- | --- | --- | --- | --- | --- | --- |
| CCCOc1cccc(-c2sc3ccc(F)cc3c2-c2c(O)c(C)nn(C)c2=O)c1 [2-213] | 3 (Herbicidal rate of 40% or more and less than 70%) | 5 (Herbicidal rate of 90% or more (almost completely withered)) | 5 (Herbicidal rate of 90% or more (almost completely withered)) | 0 (Herbicidal rate of 5% or less (almost no effect)) | 4 (Herbicidal rate of 70% or more and less than 90%) | 4 (Herbicidal rate of 70% or more and less than 90%) | 5 (Herbicidal rate of 90% or more (almost completely withered)) | 4 (Herbicidal rate of 70% or more and less than 90%) | 0 (Herbicidal rate of 5% or less (almost no effect)) | 3 (Herbicidal rate of 40% or more and less than 70%) | 3 (Herbicidal rate of 40% or more and less than 70%) | 3 (Herbicidal rate of 40% or more and less than 70%) | 1 (Herbicidal rate of 5% or more and less than 20%) | 5 (Herbicidal rate of 90% or more (almost completely withered)) | 4 (Herbicidal rate of 70% or more and less than 90%) | 0 (Herbicidal rate of 5% or less (almost no effect)) | 4 (Herbicidal rate of 70% or more and less than 90%) | 3 (Herbicidal rate of 40% or more and less than 70%) | O: lambsquarters, herbicidal effect rating (lambsquarters [2]): 1 (Herbicidal rate of 5% or more and less than 20%); M: velvetleaf, herbicidal effect rating (velvetleaf [5]): 0 (Herbicidal rate of 5% or less (almost no effect)); I: wild oat, herbicidal effect rating (wild oat [6]): 0 (Herbicidal rate of 5% or less (almost no effect)); N: redroot pigweed, herbicidal effect rating (redroot pigweed [7]): 5 (Herbicidal rate of 90% or more (almost completely withered)); L: windgrass, herbicidal effect rating (windgrass [9]): 0 (Herbicidal rate of 5% or less (almost no effect)); J: blackgrass, herbicidal effect rating (blackgrass [13]): 0 (Herbicidal rate of 5% or less (almost no effect)); R: persian speedwell, herbicidal effect rating (persian speedwell [14]): 5 (Herbicidal rate of 90% or more (almost completely withered)); H: barnyard grass, herbicidal effect rating (barnyard grass [15]): 3 (Herbicidal rate of 40% or more and less than 70%); P: chickweed, herbicidal effect rating (chickweed [16]): 3 (Herbicidal rate of 40% or more and less than 70%); G: green foxtail, herbicidal effect rating (green foxtail [18]): 4 (Herbicidal rate of 70% or more and less than 90%); K: Italian ryegrass, herbicidal effect rating (Italian ryegrass [20]): 4 (Herbicidal rate of 70% or more and less than 90%); F: southern crabgrass, herbicidal effect rating (southern crabgrass [22]): 5 (Herbicidal rate of 90% or more (almost completely withered)) |
| CCCCCCOc1cccc(-c2sc3ccc(F)cc3c2-c2c(O)c(C)nn(C)c2=O)c1 [2-226] | 0 (Herbicidal rate of 5% or less (almost no effect)) | 0 (Herbicidal rate of 5% or less (almost no effect)) | 0 (Herbicidal rate of 5% or less (almost no effect)) | 0 (Herbicidal rate of 5% or less (almost no effect)) | 0 (Herbicidal rate of 5% or less (almost no effect)) | 5 (Herbicidal rate of 90% or more (almost completely withered)) | 5 (Herbicidal rate of 90% or more (almost completely withered)) | 0 (Herbicidal rate of 5% or less (almost no effect)) | 0 (Herbicidal rate of 5% or less (almost no effect)) | 3 (Herbicidal rate of 40% or more and less than 70%) | 2 (Herbicidal rate of 20% or more and less than 40%) | 0 (Herbicidal rate of 5% or less (almost no effect)) | 4 (Herbicidal rate of 70% or more and less than 90%) | 4 (Herbicidal rate of 70% or more and less than 90%) | 4 (Herbicidal rate of 70% or more and less than 90%) | 0 (Herbicidal rate of 5% or less (almost no effect)) | 4 (Herbicidal rate of 70% or more and less than 90%) | 3 (Herbicidal rate of 40% or more and less than 70%) | herbicidal effect on O: lambsquarters (lambsquarters [2]): 0 (Herbicidal rate of 5% or less (almost no effect)); herbicidal effect on M: velvetleaf (velvetleaf [5]): 0 (Herbicidal rate of 5% or less (almost no effect)); herbicidal effect on I: wild oat (wild oat [6]): 0 (Herbicidal rate of 5% or less (almost no effect)); herbicidal effect on N: redroot pigweed (redroot pigweed [7]): 3 (Herbicidal rate of 40% or more and less than 70%); herbicidal effect on L: windgrass (windgrass [9]): 0 (Herbicidal rate of 5% or less (almost no effect)); herbicidal effect on J: blackgrass (blackgrass [13]): 0 (Herbicidal rate of 5% or less (almost no effect)); herbicidal effect on R: persian speedwell (persian speedwell [14]): 0 (Herbicidal rate of 5% or less (almost no effect)); herbicidal effect on H: barnyard grass (barnyard grass [15]): 0 (Herbicidal rate of 5% or less (almost no effect)); herbicidal effect on P: chickweed (chickweed [16]): 0 (Herbicidal rate of 5% or less (almost no effect)); herbicidal effect on G: green foxtail (green foxtail [18]): 0 (Herbicidal rate of 5% or less (almost no effect)); herbicidal effect on K: Italian ryegrass (Italian ryegrass [20]): 0 (Herbicidal rate of 5% or less (almost no effect)); herbicidal effect on F: southern crabgrass (southern crabgrass [22]): 0 (Herbicidal rate of 5% or less (almost no effect)) |
